# According to patent US20120094829A1, “Active Compound Combinations Having Insecticidal and Acaricidal Properties” (BAYER CROPSCIENCE AG, priority 2009, published 2012):
# Columns and labels:
# Type in all cases: in vivo
# [1] = test system: Myzus persicae; assay: Myzus persicae test (spray treatment of infested cabbage leaves); conditions: single active compound; for Kill in % after 6d: 0.8 g/ha; for Kill in % after 1d: 4 g/ha
# Description: (§1) Solvents: 78 parts by weight of acetone • • 1.5 parts by weight of dimethylformamide
# (§2) Emulsifier: 0.5 part by weight of alkylaryl polyglycol ether
# (§3) To produce a suitable preparation of active compound, 1 part by weight of active compound is mixed with the stated amount of solvent and emulsifier, and the concentrate is diluted with emulsifier-containing water to the desired concentration.
# Cabbage leaves (Brassica oleracea) which are heavily infested by the green peach aphid (Myzus persicae) are treated by spraying with the active compound preparation of the desired concentration.
# After the desired period of time, the kill in % is determined. 100% means that all of the aphids have been killed; 0% means that none of the aphids have been killed. The kill rates determined are entered into Colby's formula (see above).
# [2] = test system: Spodoptera frugiperda; assay: Spodoptera frugiperda test (sprayed cabbage leaves); conditions: 100 g/ha, single active compound
# Description: Spodoptera frugiperda Test
# as §1, §2, §3
# Cabbage leaves (Brassica oleracea) are treated by being sprayed with the preparation of active compound of the desired concentration and are populated with larvae of the armyworm (Spodoptera frugiperda) while the leaves are still moist.
# After the desired period of time, the kill in % is determined. 100% means that all caterpillars have been killed; 0% means that none of the caterpillars have been killed. The kill rates determined are entered into Colby's formula (see above).
# [3] = test system: Phaedon cochleariae larvae; assay: Phaedon cochleariae larvae test (sprayed cabbage leaves); conditions: single active compound
# Description: Phaedon cochleariae Larvae Test
# as §1, §2, §3
# Cabbage leaves (Brassica oleracea) are treated by spraying with the active ingredient formulation of the desired concentration and populated with larvae of the mustard beetle (Phaedon cochleariae) while the leaves are still moist.
# After the desired period of time, the kill in % is determined. 100% means that all beetle larvae have been killed; 0% means that none of the beetle larvae have been killed. The kill rates determined are entered into Colby's formula (see above).
# [4] = test system: Tetranychus urticae; assay: Tetranychus urticae test (OP-resistant/spray treatment of bean leaf discs); conditions: single active compound
# Description: Tetranychus urticae Test (OP-Resistant/Spray Treatment)
# as §1, §2, §3
# Discs of bean leaves (Phaseolus vulgaris) which are infested by all stages of the greenhouse red spider mite (Tetranychus urticae) are sprayed with the active compound preparation of the desired concentration.
# After the desired period of time, the effect in % is determined. 100% means that all of the spider mites have been killed; 0% means that none of the spider mites have been killed.
compound,measurement,setting,value
"O=C1C=C(N(CCF)Cc2ccc(Cl)nc2)CO1 [compound (I-4), 4-{[(6-chloropyrid-3-yl)methyl](2-fluoroethyl)amino}furan-2(5H)-one]",Kill in % after 6d,[1],0%
same,Kill in % after 1d,[1],20%
same,Kill in % after 6d,[2],0%
same,Kill in % after 2d,[3]; 100 g/ha,33%
same,Kill in % after 2d,[4]; 4 g/ha,0%
same,Kill in % after 6d,[4]; 4 g/ha,0%
"O=C1C=C(N(Cc2ccc(Cl)nc2)CC(F)F)CO1 [compound (I-5), 4-{[(6-chloropyrid-3-yl)methyl](2,2-difluoroethyl)amino}furan-2(5H)-one]",Kill in % after 6d,[1],30%
same,Kill in % after 2d,[3]; 20 g/ha,0%
same,Kill in % after 2d,[4]; 4 g/ha,0%
same,Kill in % after 6d,[4]; 4 g/ha,0%
same,Kill in % after 2d,[4]; 20 g/ha,0%
"CN(Cc1cnc(Cl)c(F)c1)C1=CC(=O)OC1 [compound (I-6), 4-{[(6-chloro-5-fluoropyrid-3-yl)methyl](methyl)amino}furan-2(5H)-one]",Kill in % after 6d,[3]; 20 g/ha,0%
same,Kill in % after 2d,[4]; 4 g/ha,0%
same,Kill in % after 6d,[4]; 4 g/ha,0%
"CCC(C)(C)C(=O)OC1=C(c2ccc(Cl)cc2Cl)C(=O)OC12CCCCC2 [spirodiclofen, reference compound]",Kill in % after 1d,[1],0%
"Cc1cc(C)c(C2=C(OC(=O)CC(C)(C)C)C3(CCCC3)OC2=O)c(C)c1 [spiromesifen, reference compound]",Kill in % after 1d,[1],0%
same,Kill in % after 2d,[4]; 4 g/ha,20%
same,Kill in % after 6d,[4]; 4 g/ha,70%
spirotetramat [reference compound],Kill in % after 6d,[1],20%
same,Kill in % after 6d,[2],0%
same,Kill in % after 2d,[3]; 20 g/ha,0%
same,Kill in % after 6d,[3]; 20 g/ha,0%
same,Kill in % after 2d,[3]; 100 g/ha,50%
same,Kill in % after 2d,[4]; 4 g/ha,20%
same,Kill in % after 2d,[4]; 20 g/ha,70%
